PMC11272598, “RG7774 (Vicasinabin), an orally bioavailable cannabinoid receptor 2 (CB2R) agonist, decreases retinal vascular permeability, leukocyte adhesion, and ocular inflammation in animal models” (Frontiers in Pharmacology, 2024)
pIC50: −log10 of the molar value.

Experiments:
[1] = Aqueous stability assay (ASTA); assay type: physicochemical; conditions: 37 °C, 2 h
Procedure: Aqueous solutions of RG7774 were prepared at 5 different pHs (pH 1-10) from DMSO stock solutions, added to incubation plates and shaken for 10 min at 37 °C. Solutions were transferred to a filter plate (Millipore MSGVN2250, pore size 0.22 μm) and filtered into V-bottom plates (ABGene, AB-0800) prior to heat-sealing. The procedure was repeated, increasing the 37 °C incubation time by 2 h. Samples were analyzed by HPLC at 0 and 2 h. A compound was classified as unstable if < 90% of the initial concentration was detected after 2 h.

[2] = biological target: T1, CYP3A4 (Homo sapiens, UniProt P08684); assay: CYP inhibition assay; assay type: in vitro ADME; conditions: 3A4, human liver microsomes
T1 construct: pooled human liver microsomes, CYP probe substrate around the reported Km; from tissue; host or cells: pooled human liver microsomes
Procedure: (§1) CYP assays were conducted as previously described to determine the risk of drug-drug interactions between test compounds and drugs known to be metabolized via different CYPs. […] Conditions were optimized to achieve the linear metabolic rate for the probe substrate reactions. Samples were analyzed by LC-MS/MS. Assays generate two endpoints: IC50 (μM) and percent inhibition at the highest acceptable test concentration (typically 50 μM; lower if highest concentration data are rejected due to insolubility).

[3] = biological target: T2, CYP2C19 (Homo sapiens, UniProt P33261); assay: CYP inhibition assay; assay type: in vitro ADME; conditions: 2C19, human liver microsomes
T2 construct: pooled human liver microsomes, CYP probe substrate around the reported Km; from tissue; host or cells: pooled human liver microsomes
Procedure: as §1

[4] = biological target: T3, CYP2C8 (Homo sapiens, UniProt P10632); assay: CYP inhibition assay; assay type: in vitro ADME; conditions: 2C8, human liver microsomes
T3 construct: pooled human liver microsomes, CYP probe substrate around the reported Km; from tissue; host or cells: pooled human liver microsomes
Procedure: as §1

[5] = biological target: T4, CYP2D6 (Homo sapiens, UniProt P10635); assay: CYP inhibition assay; assay type: in vitro ADME; conditions: 2D6, human liver microsomes
T4 construct: pooled human liver microsomes, CYP probe substrate around the reported Km; from tissue; host or cells: pooled human liver microsomes
Procedure: as §1

[6] = biological target: T5, CYP1A2 (Homo sapiens, UniProt P05177); assay: CYP inhibition assay; assay type: in vitro ADME; conditions: 1A2, human liver microsomes
T5 construct: pooled human liver microsomes, CYP probe substrate around the reported Km; from tissue; host or cells: pooled human liver microsomes
Procedure: as §1

[7] = biological target: T6, CYP2C9 (Homo sapiens, UniProt P11712); assay: CYP inhibition assay; assay type: in vitro ADME; conditions: 2C9, human liver microsomes
T6 construct: pooled human liver microsomes, CYP probe substrate around the reported Km; from tissue; host or cells: pooled human liver microsomes
Procedure: as §1

T5 sequence (P05177 whole entry): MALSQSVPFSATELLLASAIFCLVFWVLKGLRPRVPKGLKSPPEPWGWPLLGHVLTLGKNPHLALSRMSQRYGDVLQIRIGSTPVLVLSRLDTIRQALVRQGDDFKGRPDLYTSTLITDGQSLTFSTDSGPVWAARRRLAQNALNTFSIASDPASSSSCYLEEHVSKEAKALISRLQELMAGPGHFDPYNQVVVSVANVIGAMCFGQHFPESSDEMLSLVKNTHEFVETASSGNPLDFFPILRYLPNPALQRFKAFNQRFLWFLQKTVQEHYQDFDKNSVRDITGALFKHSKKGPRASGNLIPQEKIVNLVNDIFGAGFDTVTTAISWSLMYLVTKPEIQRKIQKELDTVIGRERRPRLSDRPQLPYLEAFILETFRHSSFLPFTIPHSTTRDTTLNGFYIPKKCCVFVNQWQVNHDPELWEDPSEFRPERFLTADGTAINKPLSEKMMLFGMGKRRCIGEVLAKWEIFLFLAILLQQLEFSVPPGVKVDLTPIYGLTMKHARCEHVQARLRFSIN
T3 sequence (P10632 whole entry): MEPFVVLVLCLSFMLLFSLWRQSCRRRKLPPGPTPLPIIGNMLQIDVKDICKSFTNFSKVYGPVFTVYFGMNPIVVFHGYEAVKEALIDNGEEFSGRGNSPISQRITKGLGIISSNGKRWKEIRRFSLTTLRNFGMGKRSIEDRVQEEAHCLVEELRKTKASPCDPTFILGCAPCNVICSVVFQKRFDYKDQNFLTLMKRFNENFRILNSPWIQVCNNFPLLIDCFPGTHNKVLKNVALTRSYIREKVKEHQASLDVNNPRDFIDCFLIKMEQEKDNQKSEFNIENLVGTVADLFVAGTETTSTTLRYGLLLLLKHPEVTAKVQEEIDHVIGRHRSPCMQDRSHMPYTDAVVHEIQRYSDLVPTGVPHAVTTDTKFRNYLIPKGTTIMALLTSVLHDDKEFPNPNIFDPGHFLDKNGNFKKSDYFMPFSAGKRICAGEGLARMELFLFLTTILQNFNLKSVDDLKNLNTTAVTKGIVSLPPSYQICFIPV
T2 sequence (P33261 whole entry): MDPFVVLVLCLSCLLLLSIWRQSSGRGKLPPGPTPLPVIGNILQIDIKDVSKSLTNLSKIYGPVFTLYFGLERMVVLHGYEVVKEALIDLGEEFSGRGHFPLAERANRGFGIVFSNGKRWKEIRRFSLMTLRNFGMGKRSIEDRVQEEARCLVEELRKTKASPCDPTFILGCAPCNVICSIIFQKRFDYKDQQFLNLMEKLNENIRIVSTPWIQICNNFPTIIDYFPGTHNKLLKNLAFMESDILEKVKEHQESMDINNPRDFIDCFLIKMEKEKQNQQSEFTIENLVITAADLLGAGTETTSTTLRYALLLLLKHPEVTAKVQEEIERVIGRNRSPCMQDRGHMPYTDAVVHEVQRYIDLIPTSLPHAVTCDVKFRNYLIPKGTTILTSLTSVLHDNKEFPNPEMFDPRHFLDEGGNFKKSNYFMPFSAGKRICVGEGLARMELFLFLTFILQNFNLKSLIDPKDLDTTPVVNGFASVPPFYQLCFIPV
T6 sequence (P11712 whole entry): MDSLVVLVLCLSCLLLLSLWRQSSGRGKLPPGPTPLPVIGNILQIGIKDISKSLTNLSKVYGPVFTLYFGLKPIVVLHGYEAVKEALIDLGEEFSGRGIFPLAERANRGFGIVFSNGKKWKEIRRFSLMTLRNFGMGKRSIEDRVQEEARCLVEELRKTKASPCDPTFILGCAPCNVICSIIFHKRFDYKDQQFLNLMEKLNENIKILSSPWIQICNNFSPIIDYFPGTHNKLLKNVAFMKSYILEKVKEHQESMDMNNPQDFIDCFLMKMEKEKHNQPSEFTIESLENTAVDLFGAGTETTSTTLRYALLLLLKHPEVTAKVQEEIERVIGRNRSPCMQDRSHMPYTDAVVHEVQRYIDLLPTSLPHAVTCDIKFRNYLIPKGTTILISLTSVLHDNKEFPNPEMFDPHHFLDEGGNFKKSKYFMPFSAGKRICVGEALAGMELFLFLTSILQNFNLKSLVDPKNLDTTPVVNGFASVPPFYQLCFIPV
T1 sequence (P08684 whole entry): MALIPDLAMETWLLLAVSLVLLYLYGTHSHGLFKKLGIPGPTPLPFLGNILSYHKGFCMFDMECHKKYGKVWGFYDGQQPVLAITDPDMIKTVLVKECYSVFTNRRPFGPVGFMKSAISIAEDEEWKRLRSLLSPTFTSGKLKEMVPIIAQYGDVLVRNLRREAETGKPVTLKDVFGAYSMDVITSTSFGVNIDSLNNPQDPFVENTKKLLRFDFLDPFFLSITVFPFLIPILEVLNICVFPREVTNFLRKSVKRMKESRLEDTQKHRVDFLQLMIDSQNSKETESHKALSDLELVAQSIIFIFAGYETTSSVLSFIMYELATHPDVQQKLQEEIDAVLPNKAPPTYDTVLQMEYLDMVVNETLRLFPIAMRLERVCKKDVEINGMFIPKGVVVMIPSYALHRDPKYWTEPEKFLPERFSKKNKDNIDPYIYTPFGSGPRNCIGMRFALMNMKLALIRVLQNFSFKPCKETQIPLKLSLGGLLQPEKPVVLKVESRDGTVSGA
T4 sequence (P10635 whole entry): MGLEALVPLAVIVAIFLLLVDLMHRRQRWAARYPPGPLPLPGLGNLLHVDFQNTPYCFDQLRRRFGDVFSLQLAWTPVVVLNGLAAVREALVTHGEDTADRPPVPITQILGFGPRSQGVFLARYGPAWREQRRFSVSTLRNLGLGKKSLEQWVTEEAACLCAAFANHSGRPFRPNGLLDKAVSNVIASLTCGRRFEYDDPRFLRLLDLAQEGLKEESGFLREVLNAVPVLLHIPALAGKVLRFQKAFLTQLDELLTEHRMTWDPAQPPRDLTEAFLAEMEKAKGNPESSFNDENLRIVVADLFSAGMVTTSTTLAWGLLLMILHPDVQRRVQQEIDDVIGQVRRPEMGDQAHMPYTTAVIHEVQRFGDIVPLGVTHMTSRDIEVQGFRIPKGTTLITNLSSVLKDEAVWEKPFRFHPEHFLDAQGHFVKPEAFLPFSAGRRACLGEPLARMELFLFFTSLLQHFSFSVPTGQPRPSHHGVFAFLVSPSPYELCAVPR

For `Cn1nnnc1Cn1nnc2c(N3CC[C@H](O)C3)nc(C(C)(C)C)nc21` [RG7774, (S)-1-(5-tert-butyl-3-[(1-methyl-1H-tetrazol-5-yl)methyl]-3H-[1,2,3]triazolo[4,5-d]pyrimidin-7-yl)pyrrolidin-3-ol], the “Chemical stability in aqueous media at pH 1–10” value [1] was “stable”, the pIC50 [2] was < 4.30 and the pIC50 [3] was < 4.30. For the same compound, the pIC50 [4] was < 4.30, the pIC50 [5] was < 4.30 and the pIC50 [6] was < 4.30. For the same compound, the pIC50 [7] was 4.54.
